Measured values reported in paper PMC6021111, “Murine leukemia virus p12 tethers the capsid-containing pre-integration complex to chromatin by binding directly to host nucleosomes in mitosis” (PLoS Pathogens, 2018).

Key:
[1] = target: T1, recombinant H3.3 poly-nucleosomes (Homo sapiens, UniProt P62807+P84243+Q93077); test: Biolayer interferometry, peptide binding to poly-nucleosomes; conditions: BLI; biotinylated peptide on streptavidin sensor; HEPES pH 7.5, 150 mM NaCl, 25°C
T1 construct: purchased Active Motif
Excerpt: To identify whether p12 proteins also interact directly with nucleosomes, we used biolayer interferometry (BLI) to probe the binding of recombinant poly-nucleosomal arrays by p12 CTD peptides (Fig 9). Streptavidin sensor probes coated with biotinylated peptide ligands were immersed in ‘analyte’ solutions containing the in vitro assembled nucleosomal arrays to observe any potential interactions. The p12 CTD peptide sequences used are highlighted in bold in Fig 5C. A peptide carrying the PFV hCBS sequence was included in the assays as a positive control.
The binding of PFV hCBS and p12 CTD peptides to recombinant H3.3 poly-nucleosomes (Active Motif) was measured using biolayer interferometry on an Octet RED system (Pall ForteBio Corp). The peptides were synthesised with a N-terminal biotin tag and GGGG linker. The Mo-MLV, FeLV and GaLV p12 CTD peptide sequences used are highlighted in bold in Fig 5C. A negative control was included that contained an R66A change in the Mo-MLV p12_M63I CTD peptide. Mo-MLV phos p12_M63I CTD was also synthesised with a phosphorylated S61 residue. […] Equilibrium binding amplitudes were determined by exponential least squares curve fitting of the association phase. […] Equilibrium binding constant (Kd) and maximum specific binding (Bmax) were calculated by fitting the data to a non-linear regression model. […]

[2] = system: nucleosome binding to immobilised biotinylated hCBS; test: BLI competition, nucleosome binding to immobilised hCBS; conditions: soluble peptide 100 μM; three technical replicates
Experimental: A negative control was included that contained an R66A change in the Mo-MLV p12_M63I CTD peptide. […] The biotinylated peptides were loaded onto streptavidin biosensors (Pall ForteBio Corp) at 0.5 μg/ml for 120 s in 10 mM HEPES pH 7.5, 150 mM NaCl, 0.005% (v/v) Tween 20. […] Experiments were performed at 25°C and sample plates were agitated at 1000 rpm. […] For competition assays, soluble non-biotin tagged peptides were added to the nucleosomal arrays at 100 μM to inhibit nucleosome binding prior to recording BLI measurements with biotinylated peptide immobilised on sensor probes.

[3] = system: GST-p12_M63I phosphorylation in 293T cells; test: Kinase inhibition, GST-p12_M63I phosphorylation (PQ/SR); type: cell-based; conditions: 3.5 h with nocodazole and 10 μM MG132, LiCl 40 mM, roscovitine 75 μM, kenpaullone 40 μM
Experimental: (§1) Glycogen synthase kinase 3 (GSK3) and cyclin-dependent kinase 5 (CDK5) were predicted to phosphorylate Mo-MLV p12 on S61, by the NetPhos 3.1 kinase prediction algorithm. […] These drugs were tested in our biochemical assays for their ability to reduce GST-p12_M63I phosphorylation and chromatin association. In our assays, cells transiently-expressing GST-p12_M63I were cultured in media containing nocodazole overnight, prior to the addition of the kinase inhibitors. […] After removal of the drugs, cells were immediately washed and lysed for glutathione-sepharose bead pull-down assays. The eluates from the beads were analysed by SDS-PAGE followed by sequential staining with PQ and SR dyes to quantify the phosphorylation levels of GST-p12_M63I. LiCl treatment had little effect on GST-p12_M63I phosphorylation (Fig 7A, lane 2). […] To correlate GST-p12_M63I phosphorylation with its ability to interact with chromatin, we quantified the amounts of H2B in the pull-down eluates by immunoblotting. […] The short period of kinase inhibition used in our assays, may have limited the effects observed on GST-p12_M63I phosphorylation.
(§2) GST-p12 proteins were expressed in 293T cells from pCAGGS/GST-derived plasmids by transient transfection using Turbofect (Thermo Fisher Scientific). Approximately 24 h after transfection, cells were changed into fresh media containing either 400 ng/ml nocodazole (Sigma) or 2 μg/ml aphidicolin (Sigma) and incubated overnight at 37°C. The synchronisation of the cell cultures after drug treatment was assessed by propidium iodide staining and cell cycle phase analysis by flow cytometry. Cells to be used in pull down assays were washed and lysed in 20 mM Tris pH 8.0, 300 mM NaCl, 1 mM EDTA, 10% Glycerol, 1% Triton X-100, protease inhibitors (Roche), phosphatase inhibitors (Merck). Lysis was facilitated by passing the lysates through a 19-gauge needle x7 and sonication, x7 pulses, 30 s ON and 30 s OFF, in an ice bath (Decon FS100). […] ProQ diamond and Sypro ruby staining (Thermo Fisher Scientific) of gels was visualised and quantified on a ChemiDoc imaging system (Bio-Rad). […]

[4] = system: H2B precipitation with GST-p12_M63I, 293T cells; test: Kinase inhibition, H2B pull-down with GST-p12_M63I; type: cell-based; conditions: 3.5 h with nocodazole and 10 μM MG132; roscovitine 75 μM, kenpaullone 40 μM; immunoblot
Experimental: as §1, §2

[5] = system: Glycogen synthase kinase 3 (GSK3); conditions: cited from earlier work
[6] = system: cyclin-dependent kinase 5 (CDK5); set-up: method as in PMID 12534346; conditions: cited from earlier work
nucleosomes = conditions: cited from earlier work
Excerpt: To identify whether p12 binds to the same nucleosomal docking site as the CBS from PFV Gag, we then tested the ability of p12 CTD peptides to block the binding of nucleosomal arrays to hCBS and vice versa (Fig 9E and 9F).

CC[C@H](C)[C@H](NC(=O)[C@@H]1CCCN1C(=O)[C@H](CO)NC(=O)[C@@H]1CCCN1C(=O)[C@H](CC(=O)O)NC(=O)CNC(=O)CNC(=O)CNC(=O)CNC(=O)CCCC[C@@H]1SC[C@@H]2NC(=O)N[C@@H]21)C(=O)N[C@@H](C)C(=O)N[C@@H](CO)C(=O)N[C@@H](CCCNC(=N)N)C(=O)N[C@@H](CC(C)C)C(=O)N[C@@H](CCCNC(=N)N)C(=O)NCC(=O)N[C@@H](CCCNC(=N)N)C(=O)N[C@@H](CCCNC(=N)N)C(=O)N[C@@H](CCC(=O)O)C(=O)N1CCC[C@H]1C(=O)N1CCC[C@H]1C(=O)N[C@H](C(=O)O)C(C)C [non-phosphorylated p12_M63I]
binding to nucleosomal arrays [1]: clear binding to nucleosomes

CC[C@H](C)[C@H](NC(=O)[C@@H]1CCCN1C(=O)[C@H](COP(=O)(O)O)NC(=O)[C@@H]1CCCN1C(=O)[C@H](CC(=O)O)NC(=O)CNC(=O)CNC(=O)CNC(=O)CNC(=O)CCCC[C@@H]1SC[C@@H]2NC(=O)N[C@@H]21)C(=O)N[C@@H](C)C(=O)N[C@@H](CO)C(=O)N[C@@H](CCCNC(=N)N)C(=O)N[C@@H](CC(C)C)C(=O)N[C@@H](CCCNC(=N)N)C(=O)NCC(=O)N[C@@H](CCCNC(=N)N)C(=O)N[C@@H](CCCNC(=N)N)C(=O)N[C@@H](CCC(=O)O)C(=O)N1CCC[C@H]1C(=O)N1CCC[C@H]1C(=O)N[C@H](C(=O)O)C(C)C [phosphorylated p12_M63I]
binding to nucleosomal arrays [1]: clear binding to nucleosomes

DPSPMASALRGRREPPY [p12_R66A, soluble Mo-MLV p12 CTD peptide with R66A]
decrease of equilibrium binding of nucleosomes to immobilised hCBS [2]: not hCBS_L539A/R540A or p12_R66A peptides

O=C1Cc2c([nH]c3ccc(Br)cc23)-c2ccccc2N1 [kenpaullone]
reduction of GST-p12_M63I phosphorylation by kinase inhibitor [3]: ~ 3 fold
reduction of H2B precipitation by kinase inhibitor [4]: ~ 3.5 fold
inhibition of GSK3 [5]: inhibits both enzymes
inhibition of CDK5 [6]: inhibits both enzymes

NQGGYNAAPRTYQP [hCBS_L539A/R540A, hCBS peptide with L539A/R540A mutations, reference compound]
decrease of equilibrium binding of nucleosomes to immobilised hCBS [2]: not hCBS_L539A/R540A or p12_R66A peptides
binding of hCBS peptides to nucleosomes (nucleosomes): prevent binding of hCBS peptides to nucleosomes
